# Results taken from patent US7534897B2 (Shionogi & Co., Ltd., priority 2002, dated 2009).
# Experiments:
# CRTH2 = target: T1, CRTH2 (Homo sapiens, UniProt Q9Y5Y4); test: Binding activity to CRTH2 ([3H]PGD2 binding assay); conditions: membrane fraction of CRTH2-transfected K562 cells, read-out: CRTH2 inhibitory activity IC50
# T1 construct: expressed in transfected cells; host or cells: K562 cells (membrane fraction)
# T1 sequence (Q9Y5Y4 1-395): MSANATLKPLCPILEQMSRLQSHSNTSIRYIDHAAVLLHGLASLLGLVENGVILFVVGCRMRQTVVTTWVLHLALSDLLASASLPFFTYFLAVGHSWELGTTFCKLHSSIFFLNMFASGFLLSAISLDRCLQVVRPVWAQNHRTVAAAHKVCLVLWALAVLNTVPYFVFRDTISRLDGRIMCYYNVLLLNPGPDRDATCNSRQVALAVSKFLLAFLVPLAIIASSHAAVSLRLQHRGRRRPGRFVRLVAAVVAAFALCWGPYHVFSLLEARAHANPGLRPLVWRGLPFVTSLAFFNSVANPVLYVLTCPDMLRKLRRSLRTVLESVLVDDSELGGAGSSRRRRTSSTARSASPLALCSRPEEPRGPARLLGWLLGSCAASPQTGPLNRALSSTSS
# Procedure: Experiment 1 Binding Activity to CRTH2
# The membrane fraction prepared with CRTH2-transfected K562 cells was used for a binding assay. To a binding-reaction solution (50 mM Tris/HCl, pH 7.4, 10 mM MgCl2) the membrane fraction (0.06 mg) and 3 nM [^3H]PGD2 (172 Ci/mmol) were added, and the mixture was reacted at room temperature for 60 min. After the reaction, the mixture was filtered through a glass fiber filter paper and washed several times with cooled physiological saline, then the radioactivity retained on the filter paper was measured. The specific-binding ratio was calculated by subtracting the non-specific binding ratio which is the radioactivity similarly measured in the presence of 10 μM PGD2 from the total binding.
# [1] = target: T2, human CRTH2-transfected K562 cells (Homo sapiens, UniProt Q9Y5Y4); test: Antagonistic activity to CRTH2: calcium mobilization assay induced by PGD2; format: cell-based; conditions: compound at 1 μM, percent inhibition of PGD2-induced calcium mobilization
# T2 construct: expressed in transfected cells; host or cells: K562 cells
# T2 sequence (Q9Y5Y4 1-395): T1 sequence (Q9Y5Y4 1-395)
# Procedure: Experiment 2 Evaluation of Antagonistic Activity to CRTH2
# To evaluate the antagonistic activity of compounds against CRTH2, calcium mobilization assay induced by PGD2 was performed using CRTH2 transfectants.
# The human CRTH2-transfected K562 cells were suspended at 2×10^6 cells/ml in assay buffer (10 mM HEPES buffer, pH 7.4, 0.1% Bovine serum albumin), and were incubated with Fura-2 AM (2 μM) for 60 min at room temperature. After washing cells were resuspended again with assay buffer, incubated at 37° C., and then treated with various concentrations of compounds for 2 min. The emitted fluorescence was measured on a calcium analyzer (CAF-110) after addition of PGD2.
Structure (SMILES),IC50 (CRTH2) [µM],melting point,antagonistic activity to CRTH2 (% INH) [1] [% INH]
CCc1c(C)n(CC(=O)O)c2ccc(NS(=O)(=O)c3ccc(F)cc3)cc12 [Ik-3],0.051,172 to 178 °C,
COc1ccc(CN(CCc2cn(CC(=O)O)c3ccccc23)S(=O)(=O)c2ccc(F)cc2)cc1 [Ia-62],0.049,108 to 110 °C,
CN(C1CCc2c(c3ccccc3n2CC(=O)O)C1)S(=O)(=O)c1ccsc1 (stereo not drawn) [Ib-30],0.0053,175 to 180 °C,
O=C(O)Cn1cc(C2CCC(NS(=O)(=O)c3ccc(F)cc3)C2)c2ccccc21 (stereo not drawn) [Ij-1],0.026,,
CN(C1Cc2c(n(CC(=O)O)c3ccccc23)C1)S(=O)(=O)c1ccc(F)cc1 (stereo not drawn) [Ib-6],0.055,,
CCN(c1ccc2c(c1)c1c(n2CC(=O)O)CCCCC1)S(=O)(=O)c1ccc(F)cc1 [Ig-15],0.0075,,
O=C(O)Cn1c2c(c3cc(N(Cc4ccccc4)S(=O)(=O)c4ccc(F)cc4)ccc31)CCCC2 [Ih-3],0.033,198 to 202 °C,
CN(CCc1cn(CC(=O)O)c2ccc(F)cc12)S(=O)(=O)c1ccc(F)cc1 [Ia-45],0.019,,
CN(C1CCc2c(c3ccccc3n2CC(=O)O)C1)S(=O)(=O)c1ccc(Cc2ccccc2)s1 (stereo not drawn) [Ib-31],0.059,138 to 140 °C,96
CN(c1ccc2c(c1)c1c(n2CC(=O)O)CCCCC1)S(=O)(=O)c1ccc(O)cc1 [Ig-16],0.0036,186 to 189 °C,
O=C(O)Cn1cc(C2CCC(N(Cc3ccccc3)S(=O)(=O)c3ccc(F)cc3)C2)c2ccccc21 (stereo not drawn) [Ij-3],0.053,,
CC1CCc2c(c3cc(N(C)S(=O)(=O)c4ccc(F)cc4)ccc3n2CC(=O)O)C1 (stereo not drawn) [Ih-5],0.023,100 to 101 °C,
O=C(O)Cn1cc(CCN(CCc2ccccc2)S(=O)(=O)c2ccc(F)cc2)c2ccccc21 [Ia-66],0.037,,
O=C(O)Cn1cc(C2=CCCN(S(=O)(=O)c3ccc(F)cc3)C2)c2ccccc21 [Ic-2],0.021,142 to 143 °C,
O=C(O)Cn1c2c(c3cc(NS(=O)(=O)c4ccc(F)cc4)ccc31)CCCCC2 [Ig-11],0.01,209 to 211 °C,
CS(=O)(=O)NC(=O)Cn1cc(CCN(Cc2ccccc2)S(=O)(=O)c2ccc(F)cc2)c2ccccc21 [Ia-52],0.024,,
Cc1c(C(C)(C)CNS(=O)(=O)c2ccc(F)cc2)c2ccccc2n1CC(=O)O [If-1],0.019,,
Cc1cc2cc(N(C)S(=O)(=O)c3ccc(F)cc3)ccc2n1CC(=O)O [Ik-2],0.086,206 to 208 °C (dec.),
"CN(C1CCc2c(c3ccccc3n2CC(=O)O)C1)S(=O)(=O)c1cccs1 (single isomer, unassigned; (+)) [(+)-Ib-29]",0.0049,,
O=C(O)Cn1cc(CCN(Cc2cccs2)S(=O)(=O)c2ccc(F)cc2)c2ccccc21 [Ia-65],0.027,,

Structure (SMILES),IC50 (CRTH2) [µM],melting point,antagonistic activity to CRTH2 (% INH) [1] [% INH]
Cc1c(C(C)C)c2cc(NS(=O)(=O)c3ccc(F)cc3)ccc2n1CC(=O)O [Ik-4],0.047,165 to 171 °C,
"O=C(O)Cn1c2c(c3ccccc31)CC(NS(=O)(=O)c1ccc(F)cc1)CC2 (single isomer, unassigned; (+)) [(+)-Ib-16]",0.0059,,
O=C(O)Cn1cc(CCNS(=O)(=O)c2ccc(F)cc2)c2cc(Cl)ccc21 [Ia-32],0.018,,
O=C(O)Cn1cc(CCN(Cc2ccccc2)S(=O)(=O)c2ccc(F)cc2)c2cc(F)ccc21 [Ia-59],0.023,,
O=C(O)Cn1c2ccccc2c2cc(NS(=O)(=O)c3ccc(F)cc3)ccc21 [Ie-2],0.039,139 to 141 °C,
O=C(O)Cn1cc(CCN(Cc2ccc([N+](=O)[O-])cc2)S(=O)(=O)c2ccc(F)cc2)c2ccccc21 [Ia-63],0.054,,
"O=C(O)Cn1c2c(c3ccccc31)CC(NS(=O)(=O)c1cccs1)CC2 (single isomer, unassigned; (+)) [(+)-Ib-20]",0.0079,,
Cc1c(C)n(CC(=O)O)c2ccc(N(C)S(=O)(=O)c3ccc(F)cc3)cc12 [Ik-1],0.048,165 to 179 °C,
CC(C)N(CCc1cn(CC(=O)O)c2ccccc12)S(=O)(=O)c1ccc(F)cc1 [Ia-48],0.057,,
O=C(O)Cn1cc(CCN(Cc2ccccc2)S(=O)(=O)c2ccc(F)cc2)c2ccccc21 [Ia-51],0.02,,91
CN(CCc1cn(CC(=O)O)c2ccccc12)S(=O)(=O)c1ccc(F)cc1 [Ia-39],0.045,,
O=C(O)Cn1c2c(c3ccccc31)CC(NS(=O)(=O)c1ccsc1)CC2 (stereo not drawn) [Ib-21],0.012,,
CCc1c(C)n(CC(=O)O)c2ccc(N(C)S(=O)(=O)c3ccc(F)cc3)cc12 [Ik-5],0.019,161 to 167 °C,
O=C(O)Cn1cc(C(CNS(=O)(=O)c2ccc(F)cc2)c2ccccc2)c2ccccc21 (stereo not drawn) [If-9],0.012,117 to 120 °C,
Cc1c(CCN(Cc2ccccc2)S(=O)(=O)c2ccc(F)cc2)c2ccccc2n1CC(=O)O [Ia-55],0.042,,
CC1CCc2c(c3cc(N(Cc4ccccc4)S(=O)(=O)c4ccc(F)cc4)ccc3n2CC(=O)O)C1 (stereo not drawn) [Ih-6],0.034,176 to 178 °C,
O=C(O)Cn1cc(C2CCCN(S(=O)(=O)c3ccc(F)cc3)C2)c2ccccc21 (stereo not drawn) [Ic-6],0.0045,189 to 194 °C (dec.),100
C=CCN(CCc1cn(CC(=O)O)c2ccccc12)S(=O)(=O)c1ccc(F)cc1 [Ia-47],0.051,,
Cc1c(CCNS(=O)(=O)c2ccc(F)cc2)c2ccccc2n1CC(=O)O [Ia-20],0.022,,
COc1ccc2c(c1)c(CCN(Cc1ccccc1)S(=O)(=O)c1ccc(F)cc1)cn2CC(=O)O [Ia-57],0.057,,

Structure (SMILES),IC50 (CRTH2) [µM],melting point,antagonistic activity to CRTH2 (% INH) [1] [% INH]
O=C(O)Cn1cc(CCNS(=O)(=O)c2ccc(-c3ccc(F)cc3)cc2)c2ccccc21 [Ia-15],0.037,,
CN(c1ccc2c(c1)c1ccccc1n2CC(=O)O)S(=O)(=O)c1ccc(F)cc1 [Ie-5],0.018,188 to 191 °C,
O=C(O)Cn1cc(CCN(Cc2ccccc2)S(=O)(=O)c2ccc(F)cc2)c2cc(Cl)ccc21 [Ia-58],0.033,,
"Cc1ccc(S(=O)(=O)N(C)C2CCc3c(c4ccccc4n3CC(=O)O)C2)cc1 (single isomer, unassigned; (+)) [(+)-Ib-27]",0.0062,,
O=C(O)Cn1cc(CCCN(Cc2ccccc2)S(=O)(=O)c2ccc(F)cc2)c2ccccc21 [Ia-85],0.08,,
CN(c1ccc2c(c1)c1c(n2CC(=O)O)CCSC1)S(=O)(=O)c1ccc(F)cc1 [Ig-3],0.0097,214 to 217 °C,
O=C(O)Cn1cc(C2CCN(S(=O)(=O)c3ccc(F)cc3)C2)c2ccccc21 (stereo not drawn) [Ic-14],0.0055,155 to 156 °C,
CN(CCc1cn(CC(=O)O)c2ccc(Cl)cc12)S(=O)(=O)c1ccc(F)cc1 [Ia-44],0.023,,
O=C(O)Cn1c2ccccc2c2cc(N(Cc3ccccc3)S(=O)(=O)c3ccc(F)cc3)ccc21 [Ie-8],0.026,212 to 213 °C,
Cc1ccccc1CN(CCc1cn(CC(=O)O)c2ccccc12)S(=O)(=O)c1ccc(F)cc1 [Ia-61],0.045,,
Cc1c(CCN(C)S(=O)(=O)c2ccc(F)cc2)c2ccccc2n1CC(=O)O [Ia-41],0.034,,
CN(c1ccc2c(c1)c1c(n2CC(=O)O)CCCC1)S(=O)(=O)c1ccc(F)cc1 [Ih-2],,,91
O=C(O)Cn1cc(CCNS(=O)(=O)c2ccc(F)cc2)c2cc(F)ccc21 [Ia-36],0.015,,89
CN(C1CCC(c2cn(CC(=O)O)c3ccccc23)C1)S(=O)(=O)c1ccc(F)cc1 (stereo not drawn) [Ij-2],0.053,,
Cc1c(C(C)CNS(=O)(=O)c2ccc(F)cc2)c2ccccc2n1CC(=O)O (stereo not drawn) [If-4],0.016,,
COc1ccc(S(=O)(=O)N(C)c2ccc3c(c2)c2c(n3CC(=O)O)CCCCC2)cc1 [Ig-14],0.0083,144 to 150 °C,
O=C(O)Cn1c2c(c3cc(NS(=O)(=O)c4ccc(F)cc4)ccc31)CCCCCC2 [Ig-18],0.019,193 to 197 °C,
"Cc1ccc(S(=O)(=O)NC2CCc3c(c4ccccc4n3CC(=O)O)C2)cc1 (single isomer, unassigned; (+)) [(+)-Ib-18]",0.013,,
CN(c1ccc2c(c1)c1c(n2CC(=O)O)CCCC1=O)S(=O)(=O)c1ccc(F)cc1 [Ig-4],0.0078,218 to 220 °C,
